Reference: PubChem BioAssay AID272 (DTP/NCI, 2004)
Where “and” joins values, the source holds several entries; their conditions need not be identical. Equal values may be shown once. Records with an inconclusive call do not appear.

System: Lewis lung carcinoma i.m., BDF1 mice, T/C %
Assay: NCI In Vivo Anticancer Drug Screen. Data for tumor model Lewis Lung Carcinoma (intramuscular) in B6D2F1 (BDF1) mice
Summary of the method: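 Tumour-bearing mice were dosed with compound, and either their survival or their tumour size was measured. Results were expressed relative to vehicle-treated controls as T/C.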

[1] = endpoint: mean tumor weight, dose: 25.0 mg/kg/injection, schedule: Q01DX011 (ip), vehicle: Klucel (hydroxypropylcellulose) (HPC), higher = larger tumour
[2] = endpoint: mean tumor weight, dose: 200.0 mg/kg/injection, schedule: Q01DX011 (ip), vehicle: Klucel (hydroxypropylcellulose) (HPC), higher = larger tumour

**Q.** `CC(=O)OCC1OC(n2ncc(=O)[nH]c2=O)C(OC(C)=O)C1OC(C)=O` (centres undefined) was tested. Which T/C (endpoint: mean tumor weight (est.), dose: 25.0 mg/kg/injection, schedule: Q01DX011 (ip), vehicle: water, higher = larger tumour) did it give?
**A.** 89 % of control

**Q.** And the T/C (endpoint: mean tumor weight (est.), dose: 50.0 mg/kg/injection, schedule: Q01DX011 (ip), vehicle: water, higher = larger tumour)?
**A.** 62 % of control

**Q.** And the T/C (endpoint: mean tumor weight (est.), dose: 200.0 mg/kg/injection, schedule: Q01DX011 (ip), vehicle: water, higher = larger tumour)?
**A.** 75 % of control

**Q.** What about the T/C (endpoint: mean tumor weight (est.), dose: 400.0 mg/kg/injection, schedule: Q01DX011 (ip), vehicle: water, higher = larger tumour) of the same compound?
**A.** 85 % of control

**Q.** What about the T/C (endpoint: mean tumor weight (est.), dose: 800.0 mg/kg/injection, schedule: Q01DX011 (ip), vehicle: water, higher = larger tumour) of the same compound?
**A.** 40 % of control

**Q.** What about the T/C (endpoint: mean tumor weight (est.), dose: 1600.0 mg/kg/injection, schedule: Q01DX011 (ip), vehicle: water, higher = larger tumour) of the same compound?
**A.** 56 % of control

**Q.** What about the T/C [1] of the same compound?
**A.** 78 % of control

**Q.** And the T/C (endpoint: mean tumor weight, dose: 50.0 mg/kg/injection, schedule: Q01DX011 (ip), vehicle: Klucel (hydroxypropylcellulose) (HPC), higher = larger tumour)?
**A.** 71 % of control

**Q.** And the T/C (endpoint: mean tumor weight, dose: 100.0 mg/kg/injection, schedule: Q01DX011 (ip), vehicle: Klucel (hydroxypropylcellulose) (HPC), higher = larger tumour)?
**A.** 65 % of control

**Q.** And the T/C [2]?
**A.** 68 % of control

**Q.** And the T/C (endpoint: mean tumor weight, dose: 400.0 mg/kg/injection, schedule: Q01DX011 (ip), vehicle: Klucel (hydroxypropylcellulose) (HPC), higher = larger tumour)?
**A.** 93 % of control

**Q.** And the T/C (endpoint: mean tumor weight, dose: 800.0 mg/kg/injection, schedule: Q01DX011 (ip), vehicle: Klucel (hydroxypropylcellulose) (HPC), higher = larger tumour)?
**A.** 37 % of control

**Q.** And the T/C (endpoint: median survival time, dose: 25.0 mg/kg/injection, schedule: Q01DX011 (ip), vehicle: Klucel (hydroxypropylcellulose) (HPC), higher = longer survival)?
**A.** 110 % of control

**Q.** And the T/C (endpoint: median survival time, dose: 25.0 mg/kg/injection, schedule: Q01DX011 (ip), vehicle: water, higher = longer survival)?
**A.** 92 % of control

**Q.** And the T/C (endpoint: median survival time, dose: 50.0 mg/kg/injection, schedule: Q01DX011 (ip), vehicle: Klucel (hydroxypropylcellulose) (HPC), higher = longer survival)?
**A.** 94 % of control

**Q.** What about the T/C (endpoint: median survival time, dose: 50.0 mg/kg/injection, schedule: Q01DX011 (ip), vehicle: water, higher = longer survival) of the same compound?
**A.** 103 % of control

**Q.** And the T/C (endpoint: median survival time, dose: 100.0 mg/kg/injection, schedule: Q01DX011 (ip), vehicle: Klucel (hydroxypropylcellulose) (HPC), higher = longer survival)?
**A.** 112 % of control

**Q.** And the T/C (endpoint: median survival time, dose: 200.0 mg/kg/injection, schedule: Q01DX011 (ip), vehicle: water, higher = longer survival)?
**A.** 98 % of control

**Q.** And the T/C (endpoint: median survival time, dose: 400.0 mg/kg/injection, schedule: Q01DX011 (ip), vehicle: Klucel (hydroxypropylcellulose) (HPC), higher = longer survival)?
**A.** 104 % of control

**Q.** What about the T/C (endpoint: median survival time, dose: 400.0 mg/kg/injection, schedule: Q01DX011 (ip), vehicle: water, higher = longer survival) of the same compound?
**A.** 121 % of control

**Q.** What about the T/C (endpoint: median survival time, dose: 800.0 mg/kg/injection, schedule: Q01DX011 (ip), vehicle: Klucel (hydroxypropylcellulose) (HPC), higher = longer survival) of the same compound?
**A.** 124 % of control

**Q.** What about the T/C (endpoint: median survival time, dose: 800.0 mg/kg/injection, schedule: Q01DX011 (ip), vehicle: water, higher = longer survival) of the same compound?
**A.** 88 % of control

**Q.** And the T/C (endpoint: median survival time, dose: 1600.0 mg/kg/injection, schedule: Q01DX011 (ip), vehicle: water, higher = longer survival)?
**A.** 111 % of control

**Q.** Which T/C (endpoint: mean tumor weight, dose: 0.06 mg/kg/injection, schedule: Q01DX011 (ip), vehicle: water, higher = larger tumour) does the source give for `CO[C@H](C(=O)[C@@H](O)[C@@H](C)O)[C@@H]1Cc2cc3cc(OC4CC(OC5CC(O)C(O)C(C)O5)C(O)C(C)O4)c(C)c(O)c3c(O)c2C(=O)[C@H]1OC1CC(OC2CC(OC3CC(C)(O)C(O)C(C)O3)C(O)C(C)O2)C(O)C(C)O1` (some centres undefined) here?
**A.** 89 % of control

**Q.** What about the T/C (endpoint: mean tumor weight, dose: 0.12 mg/kg/injection, schedule: Q01DX011 (ip), vehicle: water, higher = larger tumour) of the same compound?
**A.** 107 % of control

**Q.** And the T/C (endpoint: mean tumor weight, dose: 0.25 mg/kg/injection, schedule: Q01DX011 (ip), vehicle: water, higher = larger tumour)?
**A.** 111 % of control

**Q.** What about the T/C (endpoint: mean tumor weight, dose: 0.5 mg/kg/injection, schedule: Q01DX011 (ip), vehicle: water, higher = larger tumour) of the same compound?
**A.** 66 % of control

**Q.** And the T/C (endpoint: median survival time, dose: 0.12 mg/kg/injection, schedule: Q01DX011 (ip), vehicle: water, higher = longer survival)?
**A.** 108 % of control and 114 % of control

**Q.** And the T/C (endpoint: median survival time, dose: 0.13 mg/kg/injection, schedule: Q01DX009 (ip), vehicle: water, higher = longer survival)?
**A.** 94 % of control and 104 % of control

**Q.** What about the T/C (endpoint: median survival time, dose: 0.25 mg/kg/injection, schedule: Q01DX009 (ip), vehicle: water, higher = longer survival) of the same compound?
**A.** 97 % of control and 101 % of control

**Q.** And the T/C (endpoint: median survival time, dose: 0.25 mg/kg/injection, schedule: Q01DX011 (ip), vehicle: water, higher = longer survival)?
**A.** 92 % of control and 109 % of control

**Q.** What about the T/C (endpoint: median survival time, dose: 0.5 mg/kg/injection, schedule: Q01DX009 (ip), vehicle: water, higher = longer survival) of the same compound?
**A.** 95 % of control and 108 % of control

**Q.** What about the T/C (endpoint: median survival time, dose: 0.5 mg/kg/injection, schedule: Q01DX011 (ip), vehicle: water, higher = longer survival) of the same compound?
**A.** 103 % of control and 114 % of control

**Q.** What about the T/C (endpoint: median survival time, dose: 1.0 mg/kg/injection, schedule: Q01DX009 (ip), vehicle: water, higher = longer survival) of the same compound?
**A.** 111 % of control

**Q.** What does the source list for `O=NN(CCCl)C(=O)NCC1CCC(CNC(=O)N(CCCl)N=O)CC1` (centres undefined)?
**A.** T/C (endpoint: median survival time, dose: 65.0 mg/kg/injection, schedule: Q07DX003 (ip), vehicle: Klucel (hydroxypropylcellulose) (HPC), higher = longer survival): 116 % of control; T/C (endpoint: median survival time, dose: 108.0 mg/kg/injection, schedule: Q07DX003 (ip), vehicle: Klucel (hydroxypropylcellulose) (HPC), higher = longer survival): 106 % of control; T/C (endpoint: median survival time, dose: 180.0 mg/kg/injection, schedule: Q07DX003 (ip), vehicle: Klucel (hydroxypropylcellulose) (HPC), higher = longer survival): 114 % of control; T/C (endpoint: median survival time, dose: 300.0 mg/kg/injection, schedule: Q07DX003 (ip), vehicle: Klucel (hydroxypropylcellulose) (HPC), higher = longer survival): 106 % of control; T/C (endpoint: median survival time, dose: 500.0 mg/kg/injection, schedule: Q07DX003 (ip), vehicle: Klucel (hydroxypropylcellulose) (HPC), higher = longer survival): 114 % of control

**Q.** How did the T/C (endpoint: mean tumor weight, dose: 2.0 mg/kg/injection, schedule: Q01DX011 (ip), vehicle: saline, higher = larger tumour) turn out when `O=[As]O` was run?
**A.** 64 % of control

**Q.** And the T/C (endpoint: median survival time, dose: 2.0 mg/kg/injection, schedule: Q01DX011 (ip), vehicle: saline, higher = longer survival)?
**A.** 110 % of control

**Q.** For `OCC1OC(n2cnc3c(Cl)ncnc32)C(O)C1O` (centres undefined), which T/C (endpoint: mean tumor weight (est.), dose: 25.0 mg/kg/injection, schedule: Q01DX011 (ip), vehicle: saline, higher = larger tumour) is on record?
**A.** 121 % of control

**Q.** And the T/C (endpoint: mean tumor weight (est.), dose: 50.0 mg/kg/injection, schedule: Q01DX011 (ip), vehicle: saline, higher = larger tumour)?
**A.** 91 % of control

**Q.** And the T/C (endpoint: mean tumor weight (est.), dose: 100.0 mg/kg/injection, schedule: Q01DX011 (ip), vehicle: saline, higher = larger tumour)?
**A.** 117 % of control

**Q.** What about the T/C (endpoint: mean tumor weight (est.), dose: 400.0 mg/kg/injection, schedule: Q01DX011 (ip), vehicle: saline, higher = larger tumour) of the same compound?
**A.** 94 % of control

**Q.** And the T/C [1]?
**A.** 44 % of control

**Q.** And the T/C [2]?
**A.** 88 % of control

**Q.** And the T/C (endpoint: median survival time, dose: 25.0 mg/kg/injection, schedule: Q01DX011 (ip), vehicle: saline, higher = longer survival)?
**A.** 100 % of control

**Q.** What about the T/C (endpoint: median survival time, dose: 25.0 mg/kg/injection, schedule: Q01DX012 (ip), vehicle: Klucel (hydroxypropylcellulose) (HPC), higher = longer survival) of the same compound?
**A.** 95 % of control

**Q.** What about the T/C (endpoint: median survival time, dose: 100.0 mg/kg/injection, schedule: Q01DX011 (ip), vehicle: saline, higher = longer survival) of the same compound?
**A.** 98 % of control

**Q.** What about the T/C (endpoint: median survival time, dose: 200.0 mg/kg/injection, schedule: Q01DX012 (ip), vehicle: Klucel (hydroxypropylcellulose) (HPC), higher = longer survival) of the same compound?
**A.** 104 % of control

**Q.** What about the T/C (endpoint: median survival time, dose: 400.0 mg/kg/injection, schedule: Q01DX011 (ip), vehicle: saline, higher = longer survival) of the same compound?
**A.** 92 % of control

**Q.** How did the T/C (endpoint: mean tumor weight (est.), dose: 28.75 mg/kg/injection, schedule: Q01DX011 (ip), vehicle: saline, higher = larger tumour) turn out when `O=C(C[n+]1cc(Br)cc2ccccc21)c1ccc(O)c(O)c1` was run?
**A.** 90 % of control

**Q.** What about the T/C (endpoint: mean tumor weight (est.), dose: 57.5 mg/kg/injection, schedule: Q01DX011 (ip), vehicle: saline, higher = larger tumour) of the same compound?
**A.** 95 % of control

**Q.** What about the T/C (endpoint: mean tumor weight (est.), dose: 115.0 mg/kg/injection, schedule: Q01DX011 (ip), vehicle: saline, higher = larger tumour) of the same compound?
**A.** 63 % of control

**Q.** And the T/C (endpoint: mean tumor weight (est.), dose: 230.0 mg/kg/injection, schedule: Q01DX011 (ip), vehicle: saline, higher = larger tumour)?
**A.** 52 % of control

**Q.** `CCN(CC)CCN1C(=O)c2cccc3cccc(c23)C1=O` was tested. Which T/C (endpoint: mean tumor weight (est.), dose: 27.5 mg/kg/injection, schedule: Q01DX011 (ip), vehicle: saline, higher = larger tumour) did it give?
**A.** 76 % of control

**Q.** What about the T/C (endpoint: mean tumor weight (est.), dose: 55.0 mg/kg/injection, schedule: Q01DX011 (ip), vehicle: saline, higher = larger tumour) of the same compound?
**A.** 55 % of control

**Q.** And the T/C (endpoint: mean tumor weight (est.), dose: 110.0 mg/kg/injection, schedule: Q01DX011 (ip), vehicle: saline, higher = larger tumour)?
**A.** 64 % of control
